Laboratory results published in PMC9994261 (Cell, 2023).
≈ marks a conversion by molar mass, not a printed value. Read-outs that look alike come from different tables or passages of the source.

What was measured:
Mtb ribosome = type: biochemical, Mycobacterium tuberculosis; details: read-out: Inhibition of Mtb translation (IC50 μM)
Mtb methylated ribosome = test: Mtb in vitro translation assay with methylated (erythromycin-treated) ribosome; type: biochemical, Mycobacterium tuberculosis; details: read-out: Translation inhibition of Mtb methylated ribosome (IC50 μM)
Mtb H37Rv [1] = test: microbe, parasite or virus in culture; type: cell-based, Mycobacterium tuberculosis
[2] = system: GFP-expressing Mtb H37Rv in RAW264.7 macrophages; test: Intramacrophage assay (MIC for Mtb in macrophages); type: cell-based, Mycobacterium tuberculosis; details: Mycobacterium tuberculosis, H37RV
[3] = type: in vitro ADME
[4] = type: in vitro ADME; remark: listed apart in the source
CYP3A4 = target: T1, CYP3A4 (Homo sapiens, UniProt P08684); test: CYP3A4 reversible inhibition in human liver microsomes; type: in vitro ADME
T1 construct: human liver microsomes (purchased from BD Gentest as a pooled batch from 150 donors); tissue BD Gentest Cat#452117; host or cells: pooled human liver microsomes (150 donors)
T1 sequence (P08684 whole entry): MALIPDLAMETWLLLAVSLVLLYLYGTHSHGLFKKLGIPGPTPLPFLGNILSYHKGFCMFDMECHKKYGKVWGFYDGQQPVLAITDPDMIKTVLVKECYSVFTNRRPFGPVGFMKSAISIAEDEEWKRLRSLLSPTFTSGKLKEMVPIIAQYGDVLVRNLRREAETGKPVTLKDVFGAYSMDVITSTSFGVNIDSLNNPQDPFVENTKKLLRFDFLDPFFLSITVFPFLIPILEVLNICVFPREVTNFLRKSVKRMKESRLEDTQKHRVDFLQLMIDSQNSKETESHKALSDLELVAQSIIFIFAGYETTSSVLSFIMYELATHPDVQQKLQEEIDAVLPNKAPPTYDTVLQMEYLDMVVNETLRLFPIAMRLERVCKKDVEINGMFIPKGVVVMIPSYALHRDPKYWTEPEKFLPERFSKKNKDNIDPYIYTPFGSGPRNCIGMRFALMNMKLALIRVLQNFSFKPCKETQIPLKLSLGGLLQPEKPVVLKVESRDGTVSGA
Method: Incubations were performed with 0.1 mg/mL human liver microsomes (purchased from BD Gentest as a pooled batch from 150 donors) in a final incubation volume of 0.25 mL. The incubation medium contained 0.05 M phosphate buffer (pH 7.4) containing an NADPH regenerating system (including 1.3 mM NADP, 3.3 mM glucose 6-phosphate,3.3 mM MgCl2, and 1.0 U/mL glucose 6-phosphate dehydrogenase). Probe CYP3A4 substrates (midazolam at 3 μM and testosterone at 50 μM), were incubated for 10 and 30 min, respectively, with increasing concentrations of GM, MGM or CGM (concentration range: 1 - 30 μM). The reaction was stopped by adding acetonitrile to precipitate the proteins. The incubation mixtures were then centrifuged for 5 min at 10,000 × g, and an aliquot of the supernatant was analyzed using high-performance liquid chromatography coupled to mass spectrometry for the assessment of 1’-hydroxymidazolam and 6β-hydroxytestosterone metabolite formation.

physchem [5] = type: physicochemical
in vitro = in vitro ADME; details: human, Caco-2; read-out: Permeability in Caco2 cells (Papp)
M. bovis BCG Pasteur = test: microbe, parasite or virus in culture; type: cell-based, Mycobacterium bovis
Mtb H37Rv LuxAB [6] = test: microbe, parasite or virus in culture; type: cell-based; details: Mycobacterium tuberculosis
Mtb H37Rv LuxAB [7] = test: microbe, parasite or virus in culture; type: cell-based; details: Mycobacterium tuberculosis; remark: listed apart in the source
Mtb H37Rv [8] = type: cell-based, Mycobacterium tuberculosis; details: 7-day treatment
RAW264.7 cells = type: in vitro ADME, murine; details: RAW macrophages, 10 μM
Method: RAW264.7 cells were allowed to adhere in 96 wells plates for 4 hours before compounds were added at 10 μM. Intracellular concentrations were measured by LC-MS/MS after cellular lysis. For each point, up to 4 hours, the Intra/Extra cellular ratio was calculated. Points are the mean ± SD of four tests. Clarithromycin and Azithromycin were used as references.

Mtb H37Rv [9] = test: Mouse model of acute TB; type: in vivo; details: 4 weeks
Mtb H37Rv [10] = test: Mouse model of highly acute TB; type: in vivo
Mtb H37Rv [11] = test: Combination study in mouse model of TB; type: in vivo; details: 4 weeks
Mtb H37Rv [12] = test: MIC80 after overnight pre-incubation of Mtb with subinhibitory macrolide; type: cell-based; details: Mycobacterium tuberculosis, read-out: MIC80
physchem [13] = details: pH 7.4
physchem [14] = test: physchem
[15] = mouse po 10 mg/kg, PEG200/Tween80/Citrate Buffer 100mM pH4 (70/5/25)
[16] = mouse po 100 mg/kg, Lipidic formulation CremophorRH40/Capryol90/Mygliol812N (10/20/70) diluted in ½ water
[17] = mouse po 100 mg/kg, PEG200/Tween80/Citrate Buffer 100mM pH4 (70/5/25)
[18] = mouse po 300 mg/kg, PEG200/Tween80/Citrate Buffer 100mM pH4 (70/5/25)

CON=C1CC(C)OC(OC2C(C)CC(C)(OC(=O)NC(C)(C)CNS(=O)(=O)c3ccccc3)C(=O)C(C)C(OC(=O)CC(C)C)C(C)C(C(C)COC3OC(C)C(O)C(OC)C3OC)OC(=O)C(C)C(OC3CC(C)N(C)CC(C)O3)C2C)C1O (stereo not drawn) [SEQ-9]
IC50 (Mtb ribosome): 0.075 µM
IC50 (Mtb methylated ribosome): 0.064 µM
MIC (Mtb H37Rv [1]; Mycobacterium tuberculosis, ERDMAN / H37Rv, H37Rv/Erdman, read-out: MIC (μM) for Mtb in liquid culture): 0.7 µM (≈ 0.87 µg/mL)
MIC (Mtb H37Rv [1]; Mycobacterium tuberculosis, H37RV, read-out: MIC for Mtb in liquid culture): 0.7 µM (≈ 0.87 µg/mL)
MIC (Mtb H37Rv [1]; read-out: MIC for Mtb in liquid culture): 0.70 µM (≈ 0.87 µg/mL)
MIC ([2]; read-out: MIC (μM) for Mtb in macrophages): 0.15 µM (≈ 0.187 µg/mL)
MIC ([2]; read-out: MIC for Mtb tuberculosis in macrophages): 0.11 µM (≈ 0.137 µg/mL)
Metabolic stability in mouse liver microsomes (% metabolized compound after 20 min) [3]: 8%
Metabolic stability in rat liver microsomes (% metabolized compound after 20 min) [4]: 9%
Cytochrome 3A4 inhibition (in words) (CYP3A4): abolished
IC50 at 10 min (CYP3A4; human, microsomes, pH 7.4, midazolam, read-out: CYP3A4 inhibition, IC50 with midazolam as substrate): > 30000 nM
IC50 at 30 min (CYP3A4; human, microsomes, pH 7.4, testosterone, read-out: CYP3A4 inhibition, IC50 with testosterone as substrate (T)): > 50000 nM
solubility (physchem [5]; MCT pH 7.4, read-out: Solubility: MCT@pH 7.4): 530 µg/mL (≈ 426 µM)
solubility (physchem [5]; aqueous buffer, PBS pH 7.4, read-out: Solubility: PBS@pH 7.4): 51 µg/mL (≈ 41 µM)
Papp (in vitro): 1.5 ×10⁻⁶ cm/s
Growth inhibition (MIC80) (M. bovis BCG Pasteur): 0.56 µM
MIC80 (M. bovis BCG Pasteur; Mycobacterium tuberculosis variant bovis BCG, BCG, read-out: Growth inhibition (MIC80)): 0.32 µM (≈ 0.398 µg/mL)
MIC (M. bovis BCG Pasteur; Mycobacterium tuberculosis variant bovis BCG, BCG, read-out: MIC in Pasteur M. bovis BCG): 0.32 µM (≈ 0.398 µg/mL)
MIC (Mtb H37Rv LuxAB [6]; read-out: MIC (μM) for Mtb in liquid culture + 25% human serum): 1.2 µM
MIC (Mtb H37Rv LuxAB [6]; read-out: MIC (μM) for Mtb in liquid culture + 25% mouse serum): 2.1 µM
MIC (Mtb H37Rv LuxAB [7]; read-out: MIC for Mtb under anaerobic conditions (LORA)): 0.6 µM (≈ 0.746 µg/mL)
MBC (Mtb H37Rv LuxAB [7]; read-out: Minimal bactericidal concentration (MBC) for Mtb under anaerobic conditions (LORA)): 6.3 µM (≈ 7.83 µg/mL)
log CFU reduction (in vitro bactericidal activity) (Mtb H37Rv [8]; 30 μM): 1.5 log CFU
log CFU reduction (in vitro bactericidal activity) (Mtb H37Rv [8]; 60 μM): 2.5 log CFU
Intra-macrophage ratio (intra versus extracellular concentration) (RAW264.7 cells): ~60 fold
Survival of infected mice (Mtb H37Rv [9]; 37.5 to 300 mg/kg oral, 5 days per week, untreated controls died within 4 weeks): survived at all doses administered
Minimum effective dose (MED), complete prevention of bacterial growth (Mtb H37Rv [9]; oral, methylcellulose-Tween formulation): 300 mg/kg
Decrease in CFU (Mtb H37Rv [10]; 100 mg/kg, lipid-based formulation): 2 log10
Reduction of mean lung CFU (Mtb H37Rv [10]; 300 mg/kg, after 2 weeks of treatment): 1.42 log10
Minimum effective dose (MED) (Mtb H37Rv [10]; lipid-based formulation): 100 mg/kg
Additional reduction of lung CFU compared with B or Pa alone (Mtb H37Rv [11]; SEQ-9 300 mg/kg added to B or Pa): approximately 1 log10 CFU
Additional reduction of lung CFU compared with L or Z alone (Mtb H37Rv [11]; SEQ-9 300 mg/kg added to L or Z): approximately 0.5 log units
MIC80 (Mtb H37Rv [12]; Without induction): 1 µM (≈ 1.24 µg/mL)
MIC80 (Mtb H37Rv [12]; overnight pre-incubation with SEQ-9 0.125µg/ml): 1 µM (≈ 1.24 µg/mL)
MIC80 (Mtb H37Rv [12]; overnight pre-incubation with SEQ-9 0.25µg/ml): 1 µM (≈ 1.24 µg/mL)
MIC80 (Mtb H37Rv [12]; overnight pre-incubation with clarithromycin 0.125µg/ml): 1 µM (≈ 1.24 µg/mL)
MIC80 (Mtb H37Rv [12]; overnight pre-incubation with clarithromycin 0.25µg/ml): 1 µM (≈ 1.24 µg/mL)
Lung AUC0-24 [15]: 7.8 µg·h/mL
Lung Cmax [15]: 790 ng/mL
Lung AUC0-24 [16]: 440 µg·h/mL
Lung Cmax [16]: 31900 ng/mL
Lung AUC0-24 [17]: 190 µg·h/mL
Lung Cmax [17]: 32900 ng/mL
Lung AUC0-24 [18]: 840 µg·h/mL
Lung Cmax [18]: 252000 ng/mL
Higher plasma AUC compared with SEQ-372 (same oral dose of 30 mg/kg in mouse): 6 fold
logD (physchem [13]): 3.4
pKa (physchem [14]): 8.3
